The text below walks through data of PMC5435703 (Scientific Reports, 2017).

For data set [1], the system named is MRSE 35984. The data set is described as follows: MIC broth microdilution assay. The format is cell-based, Staphylococcus epidermidis. The following applies: for MIC: Staphylococcus epidermidis, MRSE. In general terms: Broth dilution looks for growth in wells or tubes with falling amounts of substance.
Data set [2] in a line: LDH release assay for HeLa cytotoxicity. The format is cell-based. The settings on record: human, HeLa cells; LDH release, 24 hours; tested at 25, 50 and 100 µM; read-out: HeLa Cytotox. IC50. (LDH in the medium is a marker of cell lysis.)
The test system of data set [3] is MRSE 35984. The data set is described as follows: Calgary Biofilm Device (CBD) MBC/MBEC assay. The format is cell-based, Staphylococcus epidermidis. The settings on record: for MBC: Staphylococcus epidermidis, MRSE, CBD, planktonic killing, read-out: MRSE 35984 MBC.
Data set [4] deals with VRE 700221. Put plainly: Calgary Biofilm Device (CBD) MBC/MBEC assay. The format is cell-based, Enterococcus faecium. The settings on record: for MBC: Enterococcus, VRE, CBD, planktonic killing, read-out: VRE 700221 MBC.
The subject of data set [5] is S. epi 12228. Put plainly: MIC broth microdilution assay. The format is cell-based, Staphylococcus epidermidis. The following applies: Staphylococcus epidermidis, 12228.
The subject of data set [6] is MRSA BAA-1707. The data set is described as follows: Calgary Biofilm Device (CBD) MBC/MBEC assay. The following applies: for MBC: Staphylococcus aureus. The format is cell-based, Staphylococcus aureus.
A short description of data set [7]: Hemolysis assay with red blood cells. The settings on record: human, pH 7.2.
The test system of data set [8] is MRSA BAA-1707. The data set is described as follows: Macromolecular synthesis inhibition assay with [3H]-labeled precursors. It is filed as cell-based, Staphylococcus aureus. On the procedure:
To characterize the antibacterial mechanism of action for HP small molecules, we investigated the effects HP 1 has against MRSA BAA-1707 on global biosynthetic pathways in rapidly-dividing (exponentially-growing) planktonic cells through quantifying the incorporation of various [^3H]-labeled precursors into their corresponding macromolecules. For these experiments, MRSA-1707 cultures were treated with [^3H]-thymidine (DNA biosynthesis), [^3H]-uridine (RNA biosynthesis) and [^3H]-leucine (protein biosynthesis) in the presence of HP 1 and antibiotic controls (4–16 x MIC).
Macromolecular syntheses experiments were carried out in methicillin-resistant Staphylococcus aureus BAA-1707. An overnight culture (100 µL) of S. aureus BAA-1707 was sub-cultured into 10 mL of fresh TSBG media which was allowed to grow to exponential phase (OD600 = 0.2–0.3) before transferring 500 µL to each well in a 24 well-plate. The test compounds and vehicle control (DMSO) were added to achieve the desired concentrations relative to their MIC values against S. aureus BAA-1707. Treated cultures were then incubated at 37 °C for 30 minutes before radioactive precursors for DNA ([^3H] thymidine (0.5 µCi)), RNA ([^3H] uridine (0.5 µCi)) and protein ([^3H] leucine (1 µCi)) were added. […] DMSO served as our negative control. DNA and RNA radiolabeled cultures were then incubated in 37 °C for 15 minutes before being stopped by adding 60 µL of cold 5% trichloroacetic acid (TCA). The protein synthesis experiment was stopped after 40 minutes by adding 60 µL cold TCA. These mixtures were then incubated at 2 °C for at least 30 minutes before the contents of the plates were transferred onto glass microfiber filters (24 mm) and washed 5 times with 1 mL of 5% TCA. The filters are allowed to dry overnight before 3.5 mL of the scintillation fluid was added to the scintillation vials containing the filters and the radiation counts were measured using liquid scintillation LS 6500.
H.) Macromolecular Synthesis Inhibition Assay: […]

The subject of data set [9] is MRSA-2. The data set is described as follows: MIC broth microdilution assay. The format is cell-based, Staphylococcus aureus. The settings on record: Staphylococcus aureus, MRSA.
For data set [10], the system named is MRSA-1. The data set is described as follows: MIC broth microdilution assay. It is filed as cell-based, Staphylococcus aureus. The settings on record: Staphylococcus aureus, MRSA; Table 1; read-out: MIC MRSA-1.
Data set [11] has as its system MtB H37Ra. Put plainly: MIC assay for Mycobacterium tuberculosis. The format is cell-based. The settings on record: 168 h, seven days.
Data set [12] concerns MRSA BAA-44. Put plainly: MIC broth microdilution assay. It is filed as cell-based. The following applies: Staphylococcus aureus; Table 1; read-out: MIC MRSA BAA-44.
Where [13] appears, read: supplement page 28, single CBD plate.
[14] abbreviates: 24 h, CBD, planktonic killing, 24 hours treatment, read-out: MRSA BAA-1707 MBC.

Values after ≈ are worked out from the molar mass of the structure shown. “Also recorded” adds a separate entry of the source. Where two headings read alike, the source gives them in different places. Marks after values point to notes of the source that are not given here.

Regarding `Oc1c(Br)cc(Br)c2nc3ccccc3nc12` [HP 1, 2,4-dibromo-1-hydroxyphenazine], the MIC in data set [1] (Table 1, read-out: MIC MRSE 35984) was determined as 2.35 µM (≈ 0.832 µg/mL); in data set [1] (Table 3, read-out: MRSE 35984 MIC), 2.35 µM (≈ 0.832 µg/mL); in data set [5] (Table 1, read-out: MIC S. epi 12228), 2.35 µM (≈ 0.832 µg/mL); in data set [5] (single plate shown as picture, read-out: MIC (µM), MIC Assay Against S. epidermidis 12228), 3.13 µM (≈ 1.11 µg/mL); in data set [9] (Table 1, read-out: MIC MRSA-2) it was 2.35 µM (≈ 0.832 µg/mL); in data set [9] (single plate shown as picture, read-out: MIC (µM), MIC Assay Against MRSA-2), 3.13 µM (≈ 1.11 µg/mL). In addition, the MIC worked out at 0.78 µM (≈ 0.276 µg/mL) in data set [10] and 25 µM (≈ 8.85 µg/mL) in data set [11]. Further, the “MIC MRSE 35984” value in data set [1] (Table 1) is 2.35^a µM. Also, the IC50 at 24 h in data set [2] was about 100 µM. In addition, the MBC is 23.5 µM (≈ 8.32 µg/mL) in data set [3]; 18.8 µM (≈ 6.66 µg/mL) in [4]; 50 µM (≈ 17.7 µg/mL) in data set [6] (setting [14]); 25 µM (≈ 8.85 µg/mL) in data set [6] (24 h, supplement page 27, first CBD plate, read-out: MRSA Planktonic Killing MBC); 25 µM (≈ 8.85 µg/mL) in data set [6] (24 h, supplement page 27, second CBD plate, read-out: MRSA Planktonic Killing MBC); 25 µM (≈ 8.85 µg/mL) in [6] (Figure 7A, single CBD plate, read-out: MRSA-1707 Planktonic Eradication MBC). Further, in [3] (setting [13]), the “MRSE Biofilm Eradication MBEC” value came to 250 µM. The “MRSE Planktonic Killing MBC” value in [3] (setting [13]) amounted to 15.6 µM. Further, the “VRE Biofilm Eradication MBEC” value in data set [4] (setting [13]) worked out at 12.5 µM. In addition, the “VRE Planktonic Killing MBC” value in data set [4] (setting [13]) turned out to be 12.5 µM. The “MRSA-1707 Biofilm Eradication MBEC” value in data set [6] (Figure 7A, single CBD plate) worked out at 50 µM. The same compound had a hemolysis at 1 h, 200 µM in data set [7] of at most 1%. Further, the “RNA biosynthesis inhibition ([3H]-uridine)” value in data set [8] (4 x MIC) is “inhibits”. In addition, the “protein biosynthesis inhibition ([3H]-leucine)” value in data set [8] (4 x MIC) is “inhibits”. For the same compound, the “DNA biosynthesis inhibition ([3H]-thymidine)” value in data set [8] (8 x MIC) is “does not inhibit; also recorded: not inhibiting”.
`Cc1cc(Cl)c2nc3c(C)cc(Br)c(O)c3nc2c1` [HP 9]: the IC50 at 24 h in data set [2] is over 100 µM. In addition, the MBC was 12.5 µM (≈ 4.22 µg/mL) in data set [3], 12.5 µM (≈ 4.22 µg/mL) in [4] and over 200 µM in [6] (setting [14]). The compound further showed a hemolysis at 1 h, 200 µM in data set [7] of at most 1%. Further, the MIC in data set [12] was determined as 1.56 µM (≈ 0.527 µg/mL); in data set [9] (Table 1, read-out: MIC MRSA-2), 2.35 µM (≈ 0.793 µg/mL); in data set [10], 1.56 µM (≈ 0.527 µg/mL); in data set [11] it was 50 µM (≈ 16.9 µg/mL).

The term MIC denotes the smallest concentration in the dilution series that meets the test's criterion for growth inhibition. A word on the IC50: it is the midpoint of a concentration-inhibition curve.
